In one assay the target is T1, human ARL-2 protein (Homo sapiens, UniProt C9JRZ8).
T1 construct: For the expression of the ARL-2 protein, the coding area was amplified by means of the polymerase chain reaction; His-tag; made in house; host or cells: E. coli (pQE30) or insect cells (baculovirus pBlueBac4.5/V5-His-TOPO)
Nature of the assay: Standard ARL-2 enzyme assay (NADPH A340 decrease). Format: biochemical. Conditions: sodium-phosphate buffer pH 6.3, 0.2 mmol NADPH, 28° C. The source says: For the expression of the ARL-2 protein, the coding area was amplified by means of the polymerase chain reaction (for reaction conditions, see Example 2) (primer for the N-terminal area: 5′ ATGGCCACGTTTGTGGAGCTC 3′; primer for the C-terminal area: 5′ ATATTCTGCATCGAAGGGAAA 3′), and inserted in the baculovirus expression vector pBlueBac4.5/V5-His-TOPO (Invitrogen) or the eukaryotic expression vector pcDNA3.1/V5/His-TOPO (Invitrogen). For the expression of the ARL-2 protein in E. coli, the coding area was amplified by means of a polymerase chain reaction (for reaction conditions, see Example 2) (primer for the N-terminal area: 5′ CGGGATCCGCCACGTTTGTGGAGCTC 3′; primer for the C-terminal area: 5′ CCCAAGCTTTCAATATTCTGCATCGAAGGGAAA 3′) and inserted in the procaryotic expression vector pQE30 (Quiagen). To simplify detection and purification, a fusion with an His-tag was carried out. […]
A standard ARL-2 enzyme assay was performed as follows: The standard enzyme reaction batch contained 135 mmol of sodium-phosphate buffer (pH 6.3), 0.2 mmol of NADPH and measured substrate and enzyme concentrations. The enzyme reaction was carried out at 28° C., and the substrate conversion was determined by spectrometry via the reduction of A340 of the NADPH. […] Controls without substrate and without enzyme were measured with respect to the standard. […]

The test system of assay [1] is adrenocorticotrophic carcinoma cell line Y1. Nature of the assay: Test system for apoptosis-inducing substances, annexin-V staining in Y1 cells. Conditions: concentration of 10 μM; 12 hours incubation. Type of assay: cell-based, mouse. As for the experimental part: In this test system, substances can be examined with respect to their apoptosis-inducing action. The adrenocorticotrophic carcinoma cell line Y1 was used as a cell system. Cell cultures of this mouse cell line were treated for 12 hours with different substances before the rate of apoptosis in the cells was determined. […] Y1 cells/ml were resuspended in DME/F12 (+10% FCS) and treated with the substances to be tested. After 12 hours of incubation time, the apoptosis rate was determined in the Y1 cells using annexin-V-alexa 468 staining (Roche) in combination with DNA staining (Hoechst-33258, Molecular Probes) according to manufacturer's information.

In assay [2] the test system is endothelial cell cultures. The following applies: Herbst et al., 1997; cited from earlier work.
The test system of a further assay is neuronal cell cultures. Conditions: Kruman et al., 1997; Malecki et al., 2000; cited from earlier work.

Consider 2 molecules from patent US20030148337A1, “ARL-2 for birth control” (Schering AG, priority 2001, published 2003).

SMILES strings stand for the structures.

T1 sequence (C9JRZ8 whole entry): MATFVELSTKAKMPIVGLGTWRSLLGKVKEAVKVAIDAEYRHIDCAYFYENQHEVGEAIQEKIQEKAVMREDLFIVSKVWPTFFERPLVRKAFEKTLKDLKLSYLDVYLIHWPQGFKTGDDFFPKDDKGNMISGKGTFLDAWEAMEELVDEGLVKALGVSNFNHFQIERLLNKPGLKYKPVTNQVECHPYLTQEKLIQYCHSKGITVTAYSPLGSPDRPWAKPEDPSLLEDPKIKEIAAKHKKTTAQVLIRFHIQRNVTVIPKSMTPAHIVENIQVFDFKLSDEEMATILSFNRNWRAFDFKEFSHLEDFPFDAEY

Take `CCCCCC(O)/C=C/C=O` (centres unmarked) [4-hydroxynonenal]: the “substrate of the aldo-keto-reductase ARL-2” value on human ARL-2 protein is given as “preferred substrates”. The “induction of apoptosis in the Y1 cell line” value in assay [1] is given as “can induce apoptosis”. Also, the “induction of apoptosis in endothelial cell cultures” value in assay [2] is “induces apoptosis”. In the assay on neuronal cell cultures, the “induction of apoptosis in neuronal cell cultures” value is “induces apoptosis”.

For `CC(C)CCC=O` [isocaproaldehyde], the “substrate of the aldo-keto-reductase ARL-2” value on human ARL-2 protein is given as “preferred substrates”.
